Experimental data from PMC12920416, “Preclinical development of [^18F]TAAR1-2203 as a PET radioligand for imaging TAAR1 expression and receptor occupancy” (European Journal of Nuclear Medicine and Molecular Imaging, 2025).

Assays:
[1] = Plasma protein binding of tracer, rat plasma; assay type: in vitro ADME; conditions: radiotracer, 10 min incubation, ultrafiltration, read-out: Free fraction in rat plasma
Protocol: (§1) Plasma protein binding of [^18F]TAAR1-2203 was determined in mouse, rat, NHP, and human plasma. Plasma samples (150 µL, n = 3) were preincubated at 37 °C for 5 min before addition of [^18F]TAAR1-2203 (10 µCi, 0.37 MBq). After 10 min of incubation, 300 µL of ice-cold PBS were added. Samples (300 µL) were then transferred onto Amicon® centrifugal filter units (10 kDa cut-off) and centrifuged at 2100 g for 15 min at 4 °C. Filtrates were washed with 300 µL PBS and centrifuged again. Radioactivity in the filtrate and protein-bound fractions was measured using a Packard Cobra 5002/5003 gamma counter.

[2] = Serum stability, mouse serum; assay type: in vitro ADME; conditions: 60 min, 37 °C
Protocol: (§2) The stability of [^18F]TAAR1-2203 was assessed in mouse, rat, NHP, and human serum. Aliquots (400 µL) of serum were preincubated at 37 °C for 5 min, followed by the addition of [^18F]TAAR1-2203 (20 µL, 300 µCi/11.1 MBq). After 60 min, 200 µL of each sample was collected, quenched with ice-cold MeCN (200 µL), centrifuged at 10,000 g for 5 min, and analyzed by radio-HPLC (XBridge C18 column, 3.5 μm, 4.6 mm × 150 mm; CH3CN/H2O 35:65 with 0.1% TEA; flow rate 1.0 mL/min). Experiments in PBS served as negative controls, and benfluorex hydrochloride was used as a positive control.

[3] = Plasma protein binding of tracer, NHP plasma; assay type: in vitro ADME; conditions: non-human primate, radiotracer, 10 min incubation, ultrafiltration, read-out: Free fraction in NHP plasma
Protocol: as §1

[4] = molecular target: T1, TAAR1 (Mus musculus, UniProt Q923Y8); test: Ex vivo whole-body biodistribution, baseline and blockade; assay type: in vivo, CD1 mice
T1 construct: peripheral organs that express endogenous TAAR1; tissue Charles River (wild-type); F. Hoffmann-La Roche Ltd. (TAAR1 knock-out and matched controls); host or cells: mouse pancreas, kidney, liver, brain
Protocol: Female CD1 mice (16 weeks old, n = 4) received [^18F]TAAR1-2203 (15 µCi, 0.56 MBq in 100 µL saline) via tail vein injection. For blocking studies, TAAR1 agonist RO5425754 (4 mg/kg) dissolved in saline containing 10% DMSO and 5% Tween® 80 was administered shortly before tracer injection through the same i.v. catheter. Mice were sacrificed at 5, 15, 30, and 60 min post-injection (n = 4 per group), and organs were harvested, weighed, and measured for radioactivity using a Packard Cobra 5002/5003 gamma counter. Data were decay-corrected and expressed as percentage of injected dose per gram of wet tissue (%ID/g).

[5] = Serum stability, rat serum; assay type: in vitro ADME; conditions: 60 min, 37 °C
Protocol: as §2

[6] = molecular target: T1, TAAR1; test: Dynamic PET imaging, baseline vs blockade; assay type: in vivo, CD1 mice
Protocol: (§3) Dynamic PET imaging was performed for 60 min in female C57BL/6 mice, as well as in TAAR1 knock-out mice and respective controls, under 1–2% (v/v) isoflurane anaesthesia as previously reported. [^18F]TAAR1-2203 (1.5 MBq in 100 µL saline) was administered via tail vein injection. For blocking studies, TAAR1 agonist RO5425754 (4 mg/kg) was injected 5 min prior to radiotracer administration. Dynamic PET scans were acquired using a G8 PET/CT scanner (Sofie Biosciences, Culver, CA, USA) and analyzed with PMOD software (PMOD Technologies Ltd., Zurich, Switzerland). Radioactivity was decay-corrected and expressed as standardized uptake values (SUVs), normalized to body weight and injected dose.

[7] = Serum stability, NHP serum; assay type: in vitro ADME, non-human primate; conditions: 60 min, 37 °C
Protocol: as §2

[8] = Distribution coefficient (LogD), shake-flask method; assay type: physicochemical; conditions: n-octanol/PBS pH 7.4, n = 3, read-out: LogD7.4
Protocol: The distribution coefficient (LogD) was determined using the shake-flask method. Briefly, 500 µCi (18.5 MBq) of [^18F]TAAR1-2203 was added to a presaturated mixture of PBS (1.3 mL, pH 7.4) and n-octanol (3 mL). The mixture was vortexed for 5 min, after which 500 µL aliquots (n = 3) were transferred into separate tubes and centrifuged at 3500–4000 rpm for 5 min. Following centrifugation, 50 µL of the n-octanol phase and 500 µL of the aqueous phase were carefully sampled and transferred into pre-weighed gamma counter tubes. After weighing, radioactivity in each phase was quantified using a Packard Cobra 5002/5003 gamma counter. The LogD value at pH 7.4 was calculated based on the measured weights and the radioactivity distribution between the organic and aqueous phases, as previously reported.

[9] = Microsomal stability, mouse liver microsomes; assay type: in vitro ADME; conditions: after 60 min, 37 °C, printed as rodent microsomes
Protocol: (§4) Microsomal stability of [^18F]TAAR1-2203 was evaluated using mouse, rat, NHP, and human liver microsomes. Potassium phosphate buffer (340 µL, 0.5 M, pH 7.4) was combined with NADPH regenerating solution (40 µL, 10 mM). Radiotracer solution (10 µL, 150 µCi, 5.5 MBq) was added, and the mixture was preincubated at 37 °C for 5 min. Liver microsomes (20 µL) were subsequently added. Incubations were carried out at 37 °C with gentle shaking. At 30 and 60 min, 200 µL aliquots were quenched with ice-cold MeCN (200 µL), centrifuged at 10,000 g for 5 min, and analyzed using an AR-2000 radio-TLC imaging scanner (Eckert & Ziegler).

[10] = Microsomal stability, human liver microsomes; assay type: in vitro ADME; conditions: after 60 min, 37 °C
Protocol: as §4

[11] = Plasma protein binding of tracer, mouse plasma; assay type: in vitro ADME; conditions: radiotracer, 10 min incubation, ultrafiltration, read-out: Free fraction in mouse plasma
Protocol: as §1

[12] = Stability in formulation, saline and phosphate buffer; assay type: physicochemical; conditions: up to 4 h at ambient temperature
Protocol: […] Analytical HPLC was performed using an XBridge C18 column (3.5 μm, 4.6 mm × 150 mm) under isocratic conditions with a mobile phase of MeCN/H2O (35:65, v/v) containing 0.1% triethylamine (TEA) at a flow rate of 1.0 mL/min.

[13] = molecular target: T1, TAAR1; test: Dynamic PET imaging, TAAR1 knockout vs wild-type mice; assay type: in vivo
Protocol: as §3

[14] = baseline, i.v., initial uptake post-injection
[15] = blockade with RO5425754 4 mg/kg, 15 min post-injection, n = 4
[16] = PET, blockade with RO5425754 4 mg/kg

T1 sequence (Q923Y8 whole entry): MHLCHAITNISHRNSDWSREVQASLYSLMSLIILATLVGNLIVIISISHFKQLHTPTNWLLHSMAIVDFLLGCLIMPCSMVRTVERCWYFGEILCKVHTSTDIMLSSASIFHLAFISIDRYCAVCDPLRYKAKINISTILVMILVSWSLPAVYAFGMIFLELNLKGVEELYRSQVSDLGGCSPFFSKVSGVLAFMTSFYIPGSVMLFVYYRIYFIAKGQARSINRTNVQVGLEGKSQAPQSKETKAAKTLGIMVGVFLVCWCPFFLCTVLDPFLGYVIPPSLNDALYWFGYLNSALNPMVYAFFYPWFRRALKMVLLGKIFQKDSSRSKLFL

Cc1c([18F])cccc1[C@H]1COC(N)=N1 [[^18F]TAAR1-2203]
fraction unbound at 10 min, 2.47 MBq/mL [1]: ~0.6 | Intact parent tracer in mouse serum [2]: > 99% | fraction unbound at 10 min, 2.47 MBq/mL [3]: ~0.6 | Initial uptake in kidney [4, 14]: exceeding 10 % ID/g | Initial uptake in lung [4, 14]: exceeding 10 % ID/g | Initial uptake in pancreas [4, 14]: exceeding 10 % ID/g | Specific binding in the brain ([4]; blockade with RO5425754 4 mg/kg, 15 min post-injection): no specific binding was detected | Specific binding in the kidney [4, 15]: 52.5 ± 14.3% | Specific binding in the liver [4, 15]: 30.2 ± 12.2% | Specific binding in the pancreas [4, 15]: 52.2 ± 15.2% | Intact parent tracer in rat serum [5]: > 99% | Specific binding in the CNS ([6]; PET imaging and in vitro autoradiography): no specific TAAR1 binding was observed | Tracer uptake in kidney (AUC 0–60 min), blockade vs baseline [6, 16]: significant reduction | Tracer uptake in pancreas (AUC 0–60 min), blockade vs baseline [6, 16]: significant reduction | Intact parent tracer in NHP serum [7]: > 99% | logD [8]: 1.64 ± 0.01 | Intact tracer in mouse liver microsomes [9]: > 98% | Intact tracer in human liver microsomes [10]: > 99% | fraction unbound at 10 min, 2.47 MBq/mL [11]: ~0.6 | Stability in formulation [12]: no detectable degradation | Kidney AUC0−60 min in TAAR1 KO vs WT mice [13]: significant reduction
